Measured values as given in patent US20030053967A1, “Use of 3,4-dihydroxy-mandelic acid for protecting against oxidative damage caused by ultra-violet light” (priority 2000, published 2003).

Assays:
[1] = 1,1-diphenyl-2-picrylhydrazyl test (DPPH test) for the removal of free radicals; type: biochemical; conditions: DPPH 100 μmol/l in methanol, absorption at 515 nm
Protocol: The activity of 3,4-dihydroxymandelic acid as free-radical scavenger was compared with that of conventional free-radical scavengers. For this purpose, the 1,1-diphenyl-2-picrylhydrazyl test (DPPH test) for the removal of free radicals was used.
1,1-Diphenyl-2-picrylhydrazyl (DPPH) was dissolved in methanol to a concentration of 100 μmol/l. A series of dilutions of 3,4-dihydroxymandelic acid, vitamin C, α-tocopherol and 2,6-di-tert-butyl-4-methylphenol were prepared in methanol. Methanol was used as the control. 2500 μl of the DPPH solution were mixed with 500 μl of each test solution and the decrease in absorption at 515 nm was read until the decrease was less than 2% per hour. The activity of the test substances as free-radical scavengers was calculated using the following equation:
Activity as free-radical scavenger (%)=100−(absorption of the test compounds)/(absorption of the control)×100.
The activity of the free-radical scavengers (%) in a series of dilutions of test compounds was used to calculate, for each test compound, the effective relative concentration EC50 (based on the starting concentration of DPPH, EC=c (test compound)/c(DPPH)) of a test compound at which 50% of the free radical DPPH had been removed.

[2] = accelerated autoxidation of lipids by air, Rancimat apparatus, soybean oil; conditions: for AOI in soybean oil at 100° C. with 0.05% test substance: soybean oil purified over alumina, AOI = IP(test)/IP(control); for AOI, soybean oil, 100° C.: single substance, c 0.025 % by wt.
Protocol: (§1) The test system used was the accelerated autoxidation of lipids by air with or without antioxidant using the Rancimat apparatus (Rancimat is a registered trademark of Metrohm AG, Herisau, Switzerland). […] In a control sample, only solvent was added. […] The conductivity of this aqueous solution was continuously measured and documented. The oxidation of (unsaturated) fats proceeds only very slowly for some time and then suddenly increases. The time to the increase is referred to as the induction period (IP). The following equation was used to calculate the antioxidative index (AOI): AOI=IP(with test solution/IP(control sample) The results for the experiment in soybean oil that has been purified over alumina grade N at 100° C. are shown in Table 2: The experiments were carried out as described under Example 2. […] The AOI values measured for the combinations were compared with the AOI values calculated according to the following formula: […]

[3] = accelerated autoxidation of lipids by air, Rancimat apparatus, squalene; conditions: for AOI in squalene at 80° C. with 0.005% of test substance: squalene purified over alumina, stabilized with 1 ppm α-tocopherol, 0.005% test substance; for AOI, squalene, 80° C.: single substance, c 0.0025 % by wt.
Protocol: as §1, with “squalene” for “soybean oil”, “N and stabilized with 1 ppm of α-tocopherol” for “N”, “80°” for “100°”, “3:” for “2:”

[4] = tested on: ultraviolet light-induced sebum oxidation (squalene hydroperoxide, SQOOH); test: protective action against ultraviolet light-induced sebum oxidation on the skin of subjects; type: in vivo, human; conditions: back skin of 12 subjects, UV 320 to 400 nm, 10 joules/cm^2; for c(H2O2)/c(SQ): 2 mg/cm^2 topical (acid: 200 mg in 200 ml 1,3-butylene glycol twice daily for 2 days; tocopherol: 0.2% ethanolic, once before irradiation); for % inhibition compared with the untreated area: squalene hydroperoxide, 2 mg/cm^2 topical
Protocol: 200 mg of 3,4-dihydroxymandelic acid were dissolved in 200 ml of 1,3-butylene glycol (solution A). In addition, a 0.2% strength ethanolic solution of tocopherol was prepared (solution B). A dose of 2 mg/cm^2 of solution A was applied twice daily to the skin on the back of 12 subjects for 2 days in each case. Prior to the following irradiation, solution B was applied to a control area (2 mg/cm^2). The 2 treated and one untreated sites were irradiated with ultraviolet light (320 to 400 nm, 10 joules/cm^2). The test areas in each case were treated with 4 ml of ethanol for 2 min, the solutions were dried under nitrogen at room temperature and the residue was taken up in 1 ml of ethanol. The latter solutions were investigated by HPLC for their content of squalene (detection at 210 nm against standard) or squalene hydroperoxide (SQOOH, determination of the peroxide content using cytochrome C/luminol-enhanced chemiluminescence). The content of squalene peroxide was given relative to squalene in the form of picomols peroxide per fig of squalene.
The inhibition based on the untreated area was calculated using the following equation:
% inhibition=100·(cSQOOH untreated−cSQOOH, treated)/CSQOOH, untreated

SMILES | EC50 (effective relative concentration at which 50% of the free radical DPPH had been removed, c(test compound)/c(DPPH)) [1] | AOI in soybean oil at 100° C. with 0.05% test substance [2] | AOI in squalene at 80° C. with 0.005% of test substance [3] | AOI, soybean oil, 100° C. [2] | AOI, squalene, 80° C. [3] | c(H2O2)/c(SQ) [4] | % inhibition compared with the untreated area [4]
Cc1cc(C(C)(C)C)c(O)c(C(C)(C)C)c1 [2,6-Di-tert-butyl-4-methylphenol] | 0.240 mol/mol | 4.8 | 38 | – | – | – | –
O=C(O)C(O)c1ccc(O)c(O)c1 (centres unmarked) [3,4-Dihydroxymandelic acid, 2-(3,4-dihydroxyphenyl)-2-hydroxyacetic acid] | 0.062 mol/mol | 9.5 | 34 | 5.4 | 15 | 618 ± 45 pmol/µg | 33 ± 7%
O=C1O[C@H]([C@@H](O)CO)C(O)=C1O [Vitamin C] | 0.270 mol/mol | 1.2 | 0.7 | – | – | – | –
Cc1c(C)c2c(c(C)c1O)CC[C@@](C)(CCC[C@H](C)CCC[C@H](C)CCCC(C)C)O2 [α-Tocopherol] | 0.250 mol/mol | 5.1 | 39 | 4.7 | 23 | 664 ± 19 pmol/µg | 28 ± 6%
